Calls of active or inactive are those of the source. The calls are words filed in the database; no cut-off is given here.
How the values were obtained:
[1] = test system: HepG2; test: (§1) Improvement of lipid metabolism in palmitic acid and oleic acid induced human HepG2 cell model of hepatic steatosis assessed as reduction in total cellular cholesterol level at 25 uM preincubated with palmitic acid and oleic acid for 48 hrs followed by compound addition and measured after 24 hrs; type: functional, cell-based
[2] = test system: Mus musculus; test: Antihypercholesterolemic activity against high cholesterol diet fed LXRalpha knockout C57BL/6J mouse assessed as improvement in hepatic steatosis at 300 microg/kg, ip administered every 2 days for 15 days by H&E staining based analysis; type: functional, organism-based; conditions: dose 300.0 µg/kg, time 15.0 day
[3] = test system: Mus musculus; test: Antihypercholesterolemic activity against high cholesterol diet induced C57BL/6J mouse assessed as reduction in serum alanine aminotransferase level at 300 microg/kg, ip administered every 2 days for 15 days; type: functional, organism-based; conditions: dose 300.0 µg/kg, time 15.0 day
[4] = test system: Mus musculus; test: Antihypercholesterolemic activity against high cholesterol diet fed LXRalpha knockout C57BL/6J mouse assessed as improvement in hepatic steatosis at 300 microg/kg, ip administered every 2 days for 15 days by Oil red staining based analysis; type: functional, organism-based; conditions: dose 300.0 µg/kg, time 15.0 day
[5] = test system: Mus musculus; test: Antihypercholesterolemic activity against high cholesterol diet fed C57BL/6J mouse assessed as reduction of fine vacuoles in the cytoplasm at 300 microg/kg, ip administered every 2 days for 15 days by Oil red staining based analysis; type: functional, organism-based; conditions: dose 300.0 µg/kg, time 15.0 day
[6] = test system: Mus musculus; test: Antihypercholesterolemic activity against high cholesterol diet fed LXRalpha knockout C57BL/6J mouse assessed as reduction in serum triglycerides level at 300 microg/kg, ip administered every 2 days for 15 days; type: functional, organism-based; conditions: dose 300.0 µg/kg, time 15.0 day
[7] = test system: Mus musculus; test: Antihypercholesterolemic activity against high cholesterol diet fed LXRalpha knockout C57BL/6J mouse assessed as reduction in serum aspartate aminotransferase level at 300 microg/kg, ip administered every 2 days for 15 days; type: functional, organism-based; conditions: dose 300.0 µg/kg, time 15.0 day
[8] = test system: Mus musculus; test: Antihypercholesterolemic activity against high cholesterol diet fed C57BL/6J mouse assessed as reduction in degree of hepatic steatosis at 300 microg/kg, ip administered every 2 days for 15 days by H&E staining based analysis; type: functional, organism-based; conditions: dose 300.0 µg/kg, time 15.0 day
[9] = test system: Mus musculus; test: Antihypercholesterolemic activity against high cholesterol diet fed C57BL/6J mouse assessed as reduction in hepatocyte lysis necrosis at 300 microg/kg, ip administered every 2 days for 15 days by H&E staining based analysis; type: functional, organism-based; conditions: dose 300.0 µg/kg, time 15.0 day
[10] = test system: Mus musculus; test: Antihypercholesterolemic activity against high cholesterol diet fed C57BL/6J mouse assessed as reduction in SCD1 protein level at 300 microg/kg, ip administered every 2 days for 15 days by Western blot analysis; type: functional, organism-based; conditions: dose 300.0 µg/kg, time 15.0 day
[11] = target: T1, Oxysterols receptor LXR-alpha (Homo sapiens) (UniProt Q13133); test: Agonist activity at LXRalpha in human HepG2 cells assessed as upregulation of CYP7A1 protein expression level at 25 uM incubated for 24 hrs by Western blot analysis; type: cell-based; conditions: filed as agonist
T1 sequence (whole entry): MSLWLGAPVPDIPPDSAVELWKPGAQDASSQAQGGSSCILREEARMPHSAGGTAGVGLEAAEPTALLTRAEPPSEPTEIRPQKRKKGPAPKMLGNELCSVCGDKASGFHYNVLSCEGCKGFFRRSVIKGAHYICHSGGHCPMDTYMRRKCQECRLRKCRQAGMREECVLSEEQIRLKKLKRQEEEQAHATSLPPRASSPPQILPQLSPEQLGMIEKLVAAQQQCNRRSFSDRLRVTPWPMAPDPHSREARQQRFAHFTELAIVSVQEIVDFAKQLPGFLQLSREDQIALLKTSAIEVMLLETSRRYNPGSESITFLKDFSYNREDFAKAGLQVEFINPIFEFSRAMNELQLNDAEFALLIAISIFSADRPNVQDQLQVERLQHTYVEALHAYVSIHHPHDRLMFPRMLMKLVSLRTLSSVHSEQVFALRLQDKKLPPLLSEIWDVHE

[12] = test system: HepG2; test: Effect on ABCG1 mRNA expression in human HepG2 cells at 25 uM incubated for 24 hrs by RT-qPCR analysis; type: functional, cell-based
[13] = target: T1, Oxysterols receptor LXR-alpha (Homo sapiens); test: Agonist activity at LXRalpha in human HepG2 cells assessed as upregulation of ABCA1 protein expression level at 25 uM incubated for 24 hrs by Western blot analysis; type: cell-based; conditions: filed as agonist
[14] = test system: Mus musculus; test: Antihypercholesterolemic activity against high cholesterol diet fed LXRalpha knockout C57BL/6J mouse assessed as reduction in serum total cholesterol level at 300 microg/kg, ip administered every 2 days for 15 days; type: functional, organism-based; conditions: dose 300.0 µg/kg, time 15.0 day
[15] = test system: Mus musculus; test: Antihypercholesterolemic activity against high cholesterol diet fed C57BL/6J mouse assessed as improvement in hepatocyte liposis at 300 microg/kg, ip administered every 2 days for 15 days by Oil red staining based analysis; type: functional, organism-based; conditions: dose 300.0 µg/kg, time 15.0 day
[16] = test system: Mus musculus; test: Antihypercholesterolemic activity against high cholesterol diet fed LXRalpha knockout C57BL/6J mouse assessed as reduction in serum high density lipoprotein cholesterol level at 300 microg/kg, ip administered every 2 days for 15 days; type: functional, organism-based; conditions: dose 300.0 µg/kg, time 15.0 day
[17] = test system: Mus musculus; test: Antihypercholesterolemic activity against high cholesterol diet fed LXRalpha knockout C57BL/6J mouse assessed as upregulation in CYP7A1 protein level at 300 microg/kg, ip administered every 2 days for 15 days by Western blot analysis; type: functional, organism-based; conditions: dose 300.0 µg/kg, time 15.0 day
[18] = test system: Mus musculus; test: Antihypercholesterolemic activity against high cholesterol diet fed LXRalpha knockout C57BL/6J mouse assessed as improvement in liver lipid droplet accumulation at 300 microg/kg, ip administered every 2 days for 15 days by H&E staining based analysis; type: functional, organism-based; conditions: dose 300.0 µg/kg, time 15.0 day
[19] = test system: Mus musculus; test: Antihypercholesterolemic activity against high cholesterol diet fed C57BL/6J mouse assessed as reduction in degree of hepatic steatosis at 300 microg/kg, ip administered every 2 days for 15 days by Oil red staining based analysis; type: functional, organism-based; conditions: dose 300.0 µg/kg, time 15.0 day
[20] = test system: Mus musculus; test: Antihypercholesterolemic activity against high cholesterol diet induced C57BL/6J mouse assessed as reduction in plasma low-density lipoprotein cholesterol level at 300 microg/kg, ip administered every 2 days for 15 days; type: functional, organism-based; conditions: dose 300.0 µg/kg, time 15.0 day
[21] = test system: Mus musculus; test: Antihypercholesterolemic activity against high cholesterol diet fed C57BL/6J mouse assessed as improvement in hepatocyte degeneration at 300 microg/kg, ip administered every 2 days for 15 days by Oil red staining based analysis; type: functional, organism-based; conditions: dose 300.0 µg/kg, time 15.0 day
[22] = test system: Mus musculus; test: Antihypercholesterolemic activity against high cholesterol diet fed LXRalpha knockout C57BL/6J mouse assessed as upregulation in ABCA1 protein level at 300 microg/kg, ip administered every 2 days for 15 days by Western blot analysis; type: functional, organism-based; conditions: dose 300.0 µg/kg, time 15.0 day
[23] = target: T2, Oxysterols receptor LXR-alpha (Homo sapiens, UniProt Q13133); test: Binding affinity to full length human LXRalpha assessed as dissociation constant by SPR analysis
T2 sequence (Q13133 whole entry): T1 sequence (whole entry)

[24] = test system: Mus musculus; test: Antihypercholesterolemic activity against high cholesterol diet induced C57BL/6J mouse assessed as reduction in hepatocyte damage at 300 microg/kg, ip administered every 2 days for 15 days; type: functional, organism-based; conditions: dose 300.0 µg/kg, time 15.0 day
[25] = target: T1, Oxysterols receptor LXR-alpha (Homo sapiens); test: Agonist activity at LXRalpha in human HepG2 cells assessed as upregulation of CYP7A1 mRNA expression by measuring fold change at 25 uM incubated for 24 hrs by RT-qPCR analysis; type: cell-based; conditions: filed as agonist
[26] = test system: Mus musculus; test: Antihypercholesterolemic activity against high cholesterol diet induced C57BL/6J mouse assessed as reduction in total cholesterol level in plasma at 300 microg/kg, ip administered every 2 days for 15 days; type: functional, organism-based; conditions: dose 300.0 µg/kg, time 15.0 day
[27] = test system: Mus musculus; test: Antihypercholesterolemic activity against high cholesterol diet fed C57BL/6J mouse assessed as improvement in hepatocyte liposis at 300 microg/kg, ip administered every 2 days for 15 days by H&E staining based analysis; type: functional, organism-based; conditions: dose 300.0 µg/kg, time 15.0 day
[28] = test system: Mus musculus; test: Antihypercholesterolemic activity against high cholesterol diet fed LXRalpha knockout C57BL/6J mouse assessed as reduction in serum low density lipoprotein cholesterol level at 300 microg/kg, ip administered every 2 days for 15 days; type: functional, organism-based; conditions: dose 300.0 µg/kg, time 15.0 day
[29] = test system: Mus musculus; test: Antihypercholesterolemic activity against high cholesterol diet fed C57BL/6J mouse assessed as reduction in FASN protein level at 300 microg/kg, ip administered every 2 days for 15 days by Western blot analysis; type: functional, organism-based; conditions: dose 300.0 µg/kg, time 15.0 day
[30] = test system: Mus musculus; test: Antihypercholesterolemic activity against high cholesterol diet fed C57BL/6J mouse assessed as reduction in SREBP1 protein level at 300 microg/kg, ip administered every 2 days for 15 days by Western blot analysis; type: functional, organism-based; conditions: dose 300.0 µg/kg, time 15.0 day
[31] = target: T1, Oxysterols receptor LXR-alpha (Homo sapiens); test: Agonist activity at LXRalpha in human HepG2 cells assessed as upregulation of ABCA1 mRNA expression by measuring fold change at 25 uM incubated for 24 hrs by RT-qPCR analysis; type: cell-based; conditions: filed as agonist
[32] = test system: Mus musculus; test: Antihypercholesterolemic activity against high cholesterol diet fed LXRalpha knockout C57BL/6J mouse assessed as improvement in hepatocellular degeneration at 300 microg/kg, ip administered every 2 days for 15 days by Oil red staining based analysis; type: functional, organism-based; conditions: dose 300.0 µg/kg, time 15.0 day
[33] = test system: Mus musculus; test: Antihypercholesterolemic activity against high cholesterol diet fed LXRalpha knockout C57BL/6J mouse assessed as improvement in hepatocellular degeneration at 300 microg/kg, ip administered every 2 days for 15 days by H&E staining based analysis; type: functional, organism-based; conditions: dose 300.0 µg/kg, time 15.0 day
[34] = test system: Mus musculus; test: Antihypercholesterolemic activity against high cholesterol diet fed C57BL/6J mouse assessed as reduction of fine vacuoles in the cytoplasm at 300 microg/kg, ip administered every 2 days for 15 days by H&E staining based analysis; type: functional, organism-based; conditions: dose 300.0 µg/kg, time 15.0 day
[35] = test system: Mus musculus; test: Antihypercholesterolemic activity against high cholesterol diet induced C57BL/6J mouse assessed as reduction in serum aspartate aminotransferase level at 300 microg/kg, ip administered every 2 days for 15 days; type: functional, organism-based; conditions: dose 300.0 µg/kg, time 15.0 day
[36] = Cytotoxicity against human HepG2 cells assessed as reduction in cell viability incubated for 24 hrs by CCK8 assay; type: toxicity, cell-based
[37] = test system: Mus musculus; test: Antihypercholesterolemic activity against high cholesterol diet fed LXRalpha knockout C57BL/6J mouse assessed as improvement in liver lipid droplet accumulation at 300 microg/kg, ip administered every 2 days for 15 days by Oil red staining based analysis; type: functional, organism-based; conditions: dose 300.0 µg/kg, time 15.0 day
[38] = test system: Mus musculus; test: Antihypercholesterolemic activity against high cholesterol diet fed LXRalpha knockout C57BL/6J mouse assessed as reduction in serum alanine aminotransferase level at 300 microg/kg, ip administered every 2 days for 15 days; type: functional, organism-based; conditions: dose 300.0 µg/kg, time 15.0 day
[39] = test system: HepG2; test: as §1, with “reduction in lipid droplets at 25” for “reduction in total cellular cholesterol level at 25”, “24 hrs by Oil Red O staining based analysis” for “24 hrs”; type: functional
[40] = test system: HepG2; test: Improvement of lipid metabolism in palmitic acid and oleic acid induced human HepG2 cell model of hepatic steatosis assessed as reduction in triglyceride level at 25 uM preincubated with palmitic acid and oleic acid for 48 hrs followed by compound addition and measured after 24 hrs; type: functional, cell-based
[41] = test system: HepG2; test: Effect on LXRbeta mRNA expression in human HepG2 cells at 25 uM incubated for 24 hrs by RT-qPCR analysis; type: functional, cell-based
[42] = test system: Mus musculus; test: Antihypercholesterolemic activity against high cholesterol diet fed C57BL/6J mouse assessed as reduction in hepatocyte lysis necrosis at 300 microg/kg, ip administered every 2 days for 15 days by Oil red staining based analysis; type: functional, organism-based; conditions: dose 300.0 µg/kg, time 15.0 day
[43] = test system: Mus musculus; test: Antihypercholesterolemic activity against high cholesterol diet fed C57BL/6J mouse assessed as improvement in hepatocyte degeneration at 300 microg/kg, ip administered every 2 days for 15 days by H&E staining based analysis; type: functional, organism-based; conditions: dose 300.0 µg/kg, time 15.0 day

Structure (SMILES): COc1ccc2c(C[C@@H]3NC(=O)[C@@H]4CCCN4C3=O)c(CC=C(C)C)[nH]c2c1 [TRYPROSTATIN A]
- Activity [1]: Active
- Activity [2]: Active
- Activity [3]: Active
- Activity [4]: Active
- Activity [5]: Active
- Activity [6]: inactive
- Activity [7]: inactive
- Activity [8]: Active
- Activity [9]: Active
- Activity [10]: Active
- Activity [11]: Active
- Activity [12]: inactive
- Activity [13]: Active
- Activity [14]: inactive
- Activity [15]: Active
- Activity [16]: inactive
- Activity [17]: inactive
- Activity [18]: Active
- Activity [19]: Active
- Activity [20]: Active
- Activity [21]: Active
- Activity [22]: inactive
- Kd [23]: 10.2 nM
- Activity [24]: Active
- fold change (FC) [25]: 5.01
- Activity [26]: Active
- Activity [27]: Active
- Activity [28]: inactive
- Activity [29]: Active
- Activity [30]: Active
- fold change (FC) [31]: 2.05
- Activity [32]: Active
- Activity [33]: Active
- Activity [34]: Active
- Activity [35]: Active
- IC50 at 24 h [36]: > 50000 nM
- Activity [37]: Active
- Activity [38]: inactive
- Activity [39]: Active
- Activity [40]: Active
- Activity [41]: inactive
- Activity [42]: Active
- Activity [43]: Active
